Entries after “also recorded” stand apart in the source; their conditions may differ. Like-named read-outs stand apart in the source and are kept apart here.
Assays:
[1] = target: Aurora B (Homo sapiens (Human), UniProt Q96GD4); experiment: Wild type kinase screen: Aurora B; assay type: biochemical; settings: compound at 10 μM, 10 μM ATP, Data 1 and Data 2 duplicates
[2] = target: CAMK2g (Homo sapiens (Human), UniProt Q13555); experiment: Wild type kinase screen: CAMK2g; assay type: biochemical; settings: compound at 10 μM, 10 μM ATP, Data 1 and Data 2 duplicates
[3] = target: LIMK1 (Homo sapiens (Human), UniProt P53667); experiment: Wild type kinase screen: LIMK1; assay type: biochemical; settings: compound at 10 μM, 10 μM ATP, Data 1 and Data 2 duplicates
[4] = target: MLCK/MYLK (Homo sapiens (Human), UniProt Q15746); experiment: Wild type kinase screen: MLCK/MYLK; assay type: biochemical; settings: compound at 10 μM, 10 μM ATP, Data 1 and Data 2 duplicates
[5] = target: PIM3 (Homo sapiens (Human), UniProt Q86V86); experiment: Wild type kinase screen: PIM3; assay type: biochemical; settings: compound at 10 μM, 10 μM ATP, Data 1 and Data 2 duplicates
[6] = target: RIPK4 (Homo sapiens (Human), UniProt P57078); experiment: Wild type kinase screen: RIPK4; assay type: biochemical; settings: compound at 10 μM, 10 μM ATP, Data 1 and Data 2 duplicates
[7] = target: FLT1/VEGFR1 (Homo sapiens (Human), UniProt P17948); experiment: Wild type kinase screen: FLT1/VEGFR1; assay type: biochemical; settings: compound at 10 μM, 10 μM ATP, Data 1 and Data 2 duplicates
[8] = test system: human hematopoietic stem and progenitor cells; experiment: Megakaryopoiesis and platelet production in cultured human hematopoietic stem and progenitor cells; assay type: cell-based; settings: for Inhibition of megakaryocyte/platelet parameters after addition on day 6 of culture: 30 μM added on day 6; for Inhibition of megakaryopoiesis or platelet production (overall): 30 μM, cultured human HSPC; for CD41a+ mean fluorescence intensity (MFI), normalized / Normalized cell size (CD41a+) / CD41a CD42b+ counts (mature megakaryocytes), normalized to reference media control / CD41a+ cells (megakaryocytes), normalized to reference media control / Platelet counts, normalized to reference media control: added day 0, 8 days culture, I-32 and I-1 30 μM, ABT-737 6 μmol; for CD41a CD42b+ counts (mature megakaryocytes), normalized to reference media control / CD41a+ cells (megakaryocytes), normalized to reference media control / Platelet counts, normalized to reference media control: average±SD
Experimental: Materials and Methods. Hematopoietic stem and progenitor cells, identified as viable CD45+ CD34+ cells, were isolated from peripheral blood of healthy donors by a method known in the art (see Ivetic N, Nazi I, Karim N et al. Producing megakaryocytes from a human peripheral blood source. Transfusion 2016; 56:1066-74). These isolated cells were then analyzed for purity before being expanded for four days using a commercial supplement to increase their cell population. After expansion, the cells were analyzed for purity, washed, and stimulated with a saturating concentration of thrombopoietin (20 ng/mL) and stem cell factor (50 ng/mL) to begin megakaryopoiesis. Compound I-32 and Compound I-1 were added at this timepoint at a concentration of 30 μM. The cells were then cultured for 8 days to develop into megakaryocytes and analyzed via flow cytometry to assess their number, maturity, and platelet count as defined by CD41a, CD42b and Calcein-AM expression. In addition, Compound I-32 and Compound I-1 were added to cells during the later stages of development (day 6) to assess their impact on maturation. ABT-737 (6 μmol) was used as a positive control and a DMSO vehicle control (<0.15% v/v) was the negative control. All counts are normalized to a media control (PBS) as a reference for basic cell growth.
Statistical analysis. Statistical analyses were carried out by comparing effects on measured parameters in comparison to vehicle control. A value of […] (One-way ANOVA multiple comparisons) was considered as significant.
Two isolations were performed from two healthy donors (2 males) and used to assess the impacts of Compound I-32 and Compound I-1. For one of the isolations, enough expanded hematopoietic stem and progenitor cells (HSPC) (Experiment 1) were obtained so that the addition of the compounds on day 6 was also performed along with the initial experiment. For the other experiment (Experiment 2) only an 8-day incubation was performed.
All results were normalized to a reference media (PBS) and Compound I-32 and Compound I-1 were compared to a vehicle control. Reference compound ABT-737 is a known BCL-2 inhibitor and was used a positive control. Results in FIGS. 25A-25J are the summary of a single experiments conducted in triplicates. No statistical inhibition was detected for Compound I-32 or Compound I-1 (p>0.05 one-way ANOVA).

[9] = Toxicokinetics in female rats (4-day oral gavage study, Day 1); assay type: in vivo; settings: female rat plasma; for Dose proportionality of the increases in mean Cmax and AUC0-24: 100 to 300 mg/kg/day; for Cmax / Tmax / AUC(0-t): Wistar Han (RccHan:WIST); for Cmax / Tmax / AUC(0-t) / AUC0-24 (h*ng/mL): Day 1; for AUC(0-t): read-out: AUC0-24
Experimental: Dosing Solutions. The dosing solutions of Compound I-1 or Compound I-32 were prepared as follows: a 60-mg/mL stock solution was prepared for Compound I-1 or Compound I-32 by dissolving Compound I-1 or Compound I-32 in DI water. Two molar equivalents of NaOH was added for every 1 mole of Compound I-1 or Compound I-32 (1.1 μL of 5N NaOH was added for every mg of Compound I-32 or Compound I-1). The pH of the stock solution for Compound I-1 or Compound I-32 was adjusted to achieve a final pH of 8.2 to 8.6. The resultant stock formulations were further diluted with vehicle to achieve the 30 mg/mL concentration. The 30-mg/mL formulations were diluted with control article to achieve the 10-mg/mL concentration. All dilution calculations were based on the nominal concentration of the stock solution. Formulations of Compound I-1 or Compound I-32 were prepared on the day of dosing were stored at room temperature (15 to 30° C.) and used within 8 hours of preparation completion. The control was 1.5% (w/v) carboxymethyl cellulose+0.2% (v/v) Tween 20 in DI water for as Group 1 formulations. The vehicle used for Compound I-1 and Compound I-32 formulations was 3% (w/v) carboxymethyl cellulose+0.4% (v/v) Tween 20 in DI water.
Bioanalytical and Toxicokinetic Analyses. Blood samples (approximately 0.3 mL) were collected from nonfasted toxicokinetic animals via a jugular vein on Day 1 of the dosing phase, as indicated in the following table. Samples were collected predose and approximately 1, 2, 4, and 24 hours postdose.
Blood was collected into tubes containing potassium (K2) EDTA as the anticoagulant. Samples were maintained on chilled cryoracks and were centrifuged within 1 hour of collection. Plasma was harvested into two approximately equal aliquots and stored on dry ice until placed in a freezer, set to maintain −60 to −80° C., until analyzed. Plasma samples were analyzed for Compound I-1 and Compound I-32 content using a generic Tier 1 qualified liquid chromatography-tandem mass spectrometry (LC-MS/MS) method.
In-Life Phase. Animals were dosed once daily for up to 4 days via oral gavage at a volume of 10 mL/kg. Animals in Group 2 and 3 were administered Compound I-1. Animals in Group 4 and 5 were administered Compound I-32. The control article for Group 1 was 1.5% (w/v) carboxymethyl cellulose+0.2% (v/v) Tween 20 in deionized (DI) water. The vehicle used to prepare Compound I-1 and Compound I-32 formulations was 3% (w/v) carboxymethyl cellulose+0.4% (v/v) Tween 20 in DI water.

LIMK1, sequence (P53667 whole entry, species assumed): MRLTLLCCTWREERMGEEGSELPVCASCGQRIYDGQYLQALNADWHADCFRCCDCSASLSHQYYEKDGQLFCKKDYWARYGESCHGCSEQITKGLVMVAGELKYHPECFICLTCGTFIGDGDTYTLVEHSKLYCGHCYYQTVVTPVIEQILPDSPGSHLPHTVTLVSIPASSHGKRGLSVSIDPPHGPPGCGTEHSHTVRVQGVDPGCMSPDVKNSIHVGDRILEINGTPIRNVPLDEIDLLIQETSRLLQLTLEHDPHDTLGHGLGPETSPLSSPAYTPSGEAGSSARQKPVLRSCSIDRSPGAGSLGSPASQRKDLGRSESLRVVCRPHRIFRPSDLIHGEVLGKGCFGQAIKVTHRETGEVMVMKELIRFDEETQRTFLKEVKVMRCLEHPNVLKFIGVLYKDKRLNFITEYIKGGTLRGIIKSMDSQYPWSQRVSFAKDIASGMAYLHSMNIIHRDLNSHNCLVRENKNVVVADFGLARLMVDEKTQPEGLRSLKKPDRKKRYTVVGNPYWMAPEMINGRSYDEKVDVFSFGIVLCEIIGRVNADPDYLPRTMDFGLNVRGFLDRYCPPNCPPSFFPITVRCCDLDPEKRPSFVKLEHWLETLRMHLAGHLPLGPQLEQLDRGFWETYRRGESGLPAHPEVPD
Aurora B, sequence (Q96GD4 whole entry): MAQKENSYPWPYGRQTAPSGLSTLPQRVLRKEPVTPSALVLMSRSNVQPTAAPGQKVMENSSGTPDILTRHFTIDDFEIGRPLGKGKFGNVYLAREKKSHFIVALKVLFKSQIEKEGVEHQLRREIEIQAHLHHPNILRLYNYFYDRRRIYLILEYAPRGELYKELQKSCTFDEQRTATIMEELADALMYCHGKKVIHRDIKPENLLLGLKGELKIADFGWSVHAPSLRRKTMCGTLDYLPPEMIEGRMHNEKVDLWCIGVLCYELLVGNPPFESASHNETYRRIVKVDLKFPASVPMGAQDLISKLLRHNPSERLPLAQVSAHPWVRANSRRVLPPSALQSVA
FLT1/VEGFR1, sequence (P17948 27-1338): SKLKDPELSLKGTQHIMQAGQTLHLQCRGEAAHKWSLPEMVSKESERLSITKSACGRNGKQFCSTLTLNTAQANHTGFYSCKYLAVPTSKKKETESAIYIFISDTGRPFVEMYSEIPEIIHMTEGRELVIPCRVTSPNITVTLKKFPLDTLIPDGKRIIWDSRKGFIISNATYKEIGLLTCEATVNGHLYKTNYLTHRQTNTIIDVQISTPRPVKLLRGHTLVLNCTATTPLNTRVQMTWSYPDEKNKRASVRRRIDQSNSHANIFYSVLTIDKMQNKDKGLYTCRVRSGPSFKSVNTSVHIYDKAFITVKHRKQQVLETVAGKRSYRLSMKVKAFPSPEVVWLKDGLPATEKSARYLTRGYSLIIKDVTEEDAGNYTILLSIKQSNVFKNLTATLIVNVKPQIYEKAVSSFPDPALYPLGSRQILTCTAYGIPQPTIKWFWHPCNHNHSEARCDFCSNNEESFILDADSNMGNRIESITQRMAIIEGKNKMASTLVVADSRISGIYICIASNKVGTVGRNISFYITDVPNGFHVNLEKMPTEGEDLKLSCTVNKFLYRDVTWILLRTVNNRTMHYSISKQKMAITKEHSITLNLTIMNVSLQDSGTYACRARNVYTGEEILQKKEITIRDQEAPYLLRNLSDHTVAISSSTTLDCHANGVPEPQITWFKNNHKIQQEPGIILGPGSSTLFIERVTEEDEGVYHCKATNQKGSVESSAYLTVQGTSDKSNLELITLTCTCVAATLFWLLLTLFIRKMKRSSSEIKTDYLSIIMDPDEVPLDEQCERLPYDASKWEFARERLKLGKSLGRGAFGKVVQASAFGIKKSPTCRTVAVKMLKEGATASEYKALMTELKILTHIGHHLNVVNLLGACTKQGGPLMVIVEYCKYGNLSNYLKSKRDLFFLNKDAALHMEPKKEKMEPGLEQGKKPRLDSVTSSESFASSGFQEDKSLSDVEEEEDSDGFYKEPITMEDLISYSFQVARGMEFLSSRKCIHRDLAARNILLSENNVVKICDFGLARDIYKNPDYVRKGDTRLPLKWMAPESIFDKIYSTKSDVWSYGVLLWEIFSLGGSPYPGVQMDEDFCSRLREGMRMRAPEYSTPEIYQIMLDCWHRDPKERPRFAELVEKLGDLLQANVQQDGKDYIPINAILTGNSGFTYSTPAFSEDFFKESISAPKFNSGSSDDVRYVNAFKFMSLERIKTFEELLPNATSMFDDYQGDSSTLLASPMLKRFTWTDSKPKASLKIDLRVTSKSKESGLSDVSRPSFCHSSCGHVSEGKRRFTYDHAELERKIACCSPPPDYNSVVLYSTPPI
RIPK4, sequence (P57078 whole entry, species assumed): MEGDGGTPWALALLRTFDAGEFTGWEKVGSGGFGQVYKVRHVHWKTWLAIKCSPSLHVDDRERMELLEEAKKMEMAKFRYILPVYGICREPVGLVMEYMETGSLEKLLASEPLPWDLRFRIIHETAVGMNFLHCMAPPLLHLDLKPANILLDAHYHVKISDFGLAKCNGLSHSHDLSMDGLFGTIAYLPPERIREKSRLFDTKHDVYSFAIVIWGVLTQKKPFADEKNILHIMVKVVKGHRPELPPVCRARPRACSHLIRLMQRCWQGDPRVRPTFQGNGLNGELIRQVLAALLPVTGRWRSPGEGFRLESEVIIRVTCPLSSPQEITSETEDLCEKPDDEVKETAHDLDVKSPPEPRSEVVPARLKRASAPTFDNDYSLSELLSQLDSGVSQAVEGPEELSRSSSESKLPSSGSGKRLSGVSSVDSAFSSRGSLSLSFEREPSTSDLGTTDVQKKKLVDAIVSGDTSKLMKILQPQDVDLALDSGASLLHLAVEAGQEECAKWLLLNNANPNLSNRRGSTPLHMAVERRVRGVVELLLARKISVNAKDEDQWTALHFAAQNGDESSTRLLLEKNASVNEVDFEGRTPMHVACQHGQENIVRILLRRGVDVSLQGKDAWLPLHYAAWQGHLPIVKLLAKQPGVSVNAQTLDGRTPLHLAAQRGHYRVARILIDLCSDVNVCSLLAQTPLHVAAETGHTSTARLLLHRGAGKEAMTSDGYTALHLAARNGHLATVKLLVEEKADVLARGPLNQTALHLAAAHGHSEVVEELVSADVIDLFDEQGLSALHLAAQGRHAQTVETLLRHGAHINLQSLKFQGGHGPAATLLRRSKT

SMILES | % Enzyme Activity (relative to DMSO controls) [1] [%] | % Enzyme Activity (relative to DMSO controls) [2] [%] | % Enzyme Activity (relative to DMSO controls) [3] [%] | % Enzyme Activity (relative to DMSO controls) [4] [%] | % Enzyme Activity (relative to DMSO controls) [5] [%] | % Enzyme Activity (relative to DMSO controls) [6] [%] | % Enzyme Activity (relative to DMSO controls) [7] [%] | Inhibition of megakaryocyte/platelet parameters after addition on day 6 of culture [8] | Inhibition of megakaryopoiesis or platelet production (overall) [8] | CD41a+ mean fluorescence intensity (MFI), normalized [8] [%] | Normalized cell size (CD41a+) [8] [%] | CD41a CD42b+ counts (mature megakaryocytes), normalized to reference media control [8] [%] | CD41a+ cells (megakaryocytes), normalized to reference media control [8] [%] | Platelet counts, normalized to reference media control [8] [%] | Dose proportionality of the increases in mean Cmax and AUC0-24 [9] | Cmax ([9]; 100 mg/kg/day oral gavage) [µg/mL] | Tmax ([9]; 100 mg/kg/day oral gavage) [h] | AUC(0-t) ([9]; 100 mg/kg/day oral gavage) [µg·h/mL] | Cmax ([9]; 300 mg/kg/day oral gavage) [µg/mL] | Tmax ([9]; 300 mg/kg/day oral gavage) [h] | other results
CC(C)(CCCCc1ccc(CCCCC(C)(C)C(=O)O)cc1)C(=O)O [Compound I-1, 6-[4-(5-carboxy-5-methylhexyl)-phenyl]-2,2-dimethylhexanoic acid] | 63.21 | 57.02 | 71.9 | 106.34 | 83 | 42.78 | 87.88 | no inhibition detected | do not significantly affect; also recorded: do not inhibit | 109±10 | 98±3 | 97±9 | 94±2 | 94±12 | less than dose proportional | 415 | 2 | 5460 | 787 | 1 | AUC(0-t) ([9]; 300 mg/kg/day oral gavage): 7520 µg·h/mL; AUC0-24 (h*ng/mL) ([9]; 100 mg/kg/day oral gavage): 5,460,000 h*ng/mL
CC(C)(CCCCc1cccc(CCCCC(C)(C)C(=O)O)c1)C(=O)O [Compound I-32, 6-[3-(5-carboxy-5-methylhexyl)-phenyl]-2,2-dimethylhexanoic acid] | 67.29 | 66.13 | 71.71 | 103.59 | 86.73 | 42.74 | 91.15 | no inhibition detected | do not significantly affect; also recorded: do not inhibit | 110±11 | 94±3 | 106±17 | 98±3 | 134±34 | approximately dose proportional | 142 | 2 | 2030 | 406 | 4 | AUC(0-t) ([9]; 300 mg/kg/day oral gavage): 7880 µg·h/mL; AUC0-24 (h*ng/mL) ([9]; 300 mg/kg/day oral gavage): 7,880,000 h*ng/mL

From US20240398737A1, “FUNCTIONALIZED LONG-CHAIN HYDROCARBON MONO- AND DI-CARBOXYLIC ACIDS AND DERIVATIVES THEREOF, AND THEIR USE FOR THE PREVENTION OR TREATMENT OF DISEASE” (Espervita Therapeutics, Inc., priority 2021, published 2024)
